≈ marks a conversion by molar mass, not a printed value.
Columns and labels:
Test in all cases: MIC, agar dilution
Format in all cases: cell-based
[1] = system: S. aureus UBMS 88-7 (tetK); conditions: S. aureus UBMS 88-7 (tetK)
E. faecalis 12201 = conditions: E. faecalis 12201
E. coli ATCC 25922 = conditions: E. coli ATCC 25922
[2] = system: S. aureus ATCC 29213 (Sensitive); conditions: S. aureus ATCC 29213 (Sensitive)
E. coli UBMS 88-1 (tetB) = conditions: E. coli UBMS 88-1 (tetB)
[3] = system: S. aureus UBMS 90-2 (tetM); conditions: S. aureus UBMS 90-2 (tetM)
[4] = system: S. aureus UBMS 90-1 (tetM); conditions: S. aureus UBMS 90-1 (tetM)
[5] = system: S. haemolyticus AVAH 88-3; conditions: S. haemolyticus AVAH 88-3
[6] = system: S. aureus IVES 1983 (meth. resistant); conditions: S. aureus IVES 1983 (meth. resistant)
[7] = system: E. coli UBMS 89-2 (Sensitive); conditions: E. coli UBMS 89-2 (Sensitive)
[8] = system: S. aureus UBMS 90-3 (Sensitive); conditions: S. aureus UBMS 90-3 (Sensitive)
[9] = system: S. aureus IVES 2943 (meth. resistant); conditions: S. aureus IVES 2943 (meth. resistant)
[10] = system: E. coli UBMS 88-2 (Sensitive); conditions: E. coli UBMS 88-2 (Sensitive)
[11] = system: S. aureus UBMS 88-5 (tetM); conditions: S. aureus UBMS 88-5 (tetM)
E. coli UBMS 89-1 (tetM) = conditions: E. coli UBMS 89-1 (tetM)
[12] = system: S. aureus Smith (Sensitive); conditions: S. aureus Smith (Sensitive)
[13] = system: S. aureus UBMS 88-4 (Sensitive); conditions: S. aureus UBMS 88-4 (Sensitive)
E. faecalis ATCC 29212 = conditions: E. faecalis ATCC 29212

| Molecule | MIC [1] [µg/mL] | MIC (E. faecalis 12201) [µg/mL] | MIC (E. coli ATCC 25922) [µg/mL] | MIC [2] [µg/mL] | MIC (E. coli UBMS 88-1 (tetB)) [µg/mL] | MIC [3] [µg/mL] | MIC [4] [µg/mL] | MIC [5] [µg/mL] | MIC [6] [µg/mL] | MIC [7] [µg/mL] | MIC [8] [µg/mL] | MIC [9] [µg/mL] | MIC [10] [µg/mL] | MIC [11] [µg/mL] | MIC (E. coli UBMS 89-1 (tetM)) [µg/mL] | MIC [12] [µg/mL] | MIC [13] [µg/mL] | MIC (E. faecalis ATCC 29212) [µg/mL] |
| --- | --- | --- | --- | --- | --- | --- | --- | --- | --- | --- | --- | --- | --- | --- | --- | --- | --- | --- |
| CN(C)c1cc(NC(=O)c2ccc(N)cc2)c(O)c2c1CC1CC3C(N(C)C)C(O)=C(C(N)=O)C(=O)C3(O)C(O)=C1C2=O.O=S(=O)(O)O (stereo not drawn) [X, 9-[(4-Aminobenzoyl)amino)-7-(dimethylamino)-6-demethyl-6-deoxytetracycline sulfate] | 8 | 32 | >32 | 0.5 | >32 | 8 | 16 | 8 | >32 | >32 | 1 | >32 | >32 | 8 | >32 | 1 | 1 | 8 |
| CN(C)c1cc(NC(=O)c2ccco2)c(O)c2c1CC1CC3C(N(C)C)C(O)=C(C(N)=O)C(=O)C3(O)C(O)=C1C2=O (stereo not drawn) [Y, 7-(Dimethylamino)-9-((2-furanylcarbonyl)amino)-6-demethyl-6-deoxytetracycline] | >32 | 32 (≈ 56.5 µM) | >32 | 0.5 (≈ 0.883 µM) | >32 | 8 (≈ 14.1 µM) | 32 (≈ 56.5 µM) | >32 | >32 | >32 | 2 (≈ 3.53 µM) | >32 | >32 | 16 (≈ 28.2 µM) | >32 | 2 (≈ 3.53 µM) | 4 (≈ 7.06 µM) | 8 (≈ 14.1 µM) |
| CN(C)c1cc(NC(=O)c2cccs2)c(O)c2c1CC1CC3C(N(C)C)C(O)=C(C(N)=O)C(=O)C3(O)C(O)=C1C2=O (stereo not drawn) [Z, 7-(Dimethylamino)-9-[(2-thienylcarbonyl)amino]-6-demethyl-6-deoxytetracycline] | 32 (≈ 54.9 µM) | 8 (≈ 13.7 µM) | 32 (≈ 54.9 µM) | 0.5 (≈ 0.858 µM) | >32 | 4 (≈ 6.87 µM) | 4 (≈ 6.87 µM) | 8 (≈ 13.7 µM) | 32 (≈ 54.9 µM) | >32 | 2 (≈ 3.43 µM) | 32 (≈ 54.9 µM) | >32 | 8 (≈ 13.7 µM) | >32 | 2 (≈ 3.43 µM) | 8 (≈ 13.7 µM) | 8 (≈ 13.7 µM) |
| [7S-(7α,10aα) ]-C(9-(Aminocarbonyl)-7-(dimethylamino)-5,5a,6,6a,7,10,10a,12-octahydro-1,8,10a,11-tetrahydroxy-10,12-dioxo-2-naphthacenyl]amino]oxoacetic acid ethyl ester | 8 | 32 | 32 | 0.25 | >32 | 32 | >32 | 4 | >32 | >32 | 1 | 32 | >32 | 32 | >32 | 2 | 2 | 32 |
